ChEMBL document CHEMBL5465560, “Selectivity Literature for EUbOPEN Chemogenomic Library” (2024)

Assays:
[1] = target: Histone-lysine N-methyltransferase, H3 lysine-79 specific (Homo sapiens, UniProt Q8TEK3); details: at 1 µM
[2] = target: Non-receptor tyrosine-protein kinase TYK2 (Homo sapiens, UniProt P29597); test: Selectivity interaction (KinomeScan (DiscoverX)) EUB0001079a TYK2; details: at 1 µM
[3] = target: T1, Bromodomain and PHD finger-containing protein 3 (Homo sapiens) (UniProt Q9ULD4); test: Selectivity interaction (Bromodomain panel (DSF asssay)) EUB0000270b BRPF3
T1 sequence (whole entry): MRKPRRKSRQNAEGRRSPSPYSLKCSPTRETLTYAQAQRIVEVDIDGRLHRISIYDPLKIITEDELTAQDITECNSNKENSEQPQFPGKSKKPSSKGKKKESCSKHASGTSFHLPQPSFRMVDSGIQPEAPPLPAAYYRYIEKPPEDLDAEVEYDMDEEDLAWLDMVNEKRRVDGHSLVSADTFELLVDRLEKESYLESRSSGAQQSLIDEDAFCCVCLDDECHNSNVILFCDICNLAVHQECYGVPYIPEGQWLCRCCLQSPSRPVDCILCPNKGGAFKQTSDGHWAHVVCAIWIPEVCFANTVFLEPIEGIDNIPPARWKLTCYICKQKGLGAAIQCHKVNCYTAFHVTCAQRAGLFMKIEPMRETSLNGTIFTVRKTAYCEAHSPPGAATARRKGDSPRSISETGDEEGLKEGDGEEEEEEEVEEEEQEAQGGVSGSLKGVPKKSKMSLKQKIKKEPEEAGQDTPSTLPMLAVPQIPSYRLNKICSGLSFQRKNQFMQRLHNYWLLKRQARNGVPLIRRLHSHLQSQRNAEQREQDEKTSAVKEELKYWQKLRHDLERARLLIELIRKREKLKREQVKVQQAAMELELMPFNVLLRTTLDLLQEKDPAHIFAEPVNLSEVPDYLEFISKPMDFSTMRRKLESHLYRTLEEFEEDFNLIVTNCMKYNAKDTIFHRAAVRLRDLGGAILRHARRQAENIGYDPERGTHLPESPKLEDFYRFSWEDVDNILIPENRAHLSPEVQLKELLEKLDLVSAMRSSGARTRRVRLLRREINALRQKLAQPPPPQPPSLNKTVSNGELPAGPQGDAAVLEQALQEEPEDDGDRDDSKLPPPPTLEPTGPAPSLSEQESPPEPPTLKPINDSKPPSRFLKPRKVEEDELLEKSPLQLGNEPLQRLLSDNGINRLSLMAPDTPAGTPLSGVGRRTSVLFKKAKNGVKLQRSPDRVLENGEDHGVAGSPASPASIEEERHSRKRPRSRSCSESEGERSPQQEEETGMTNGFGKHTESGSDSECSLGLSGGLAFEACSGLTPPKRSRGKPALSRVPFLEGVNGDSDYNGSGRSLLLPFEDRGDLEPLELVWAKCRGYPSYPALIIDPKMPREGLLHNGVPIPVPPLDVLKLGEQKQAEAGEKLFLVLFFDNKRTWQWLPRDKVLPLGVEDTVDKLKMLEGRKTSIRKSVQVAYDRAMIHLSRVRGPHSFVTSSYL

[4] = target: Focal adhesion kinase 1 (Homo sapiens, UniProt Q05397); test: Selectivity interaction (ActivX KiNativ screen (kinase selectivity in THP-1 cell lysates)) EUB0000639a PTK2; type: subcellular; details: lysate
[5] = target: Cyclin-dependent kinase 14 (Homo sapiens) (UniProt O94921); test: Selectivity interaction (KinomeScan (DiscoverX)) EUB0000595a CDK14; details: at 10 µM
[6] = target: T2, Casein kinase I isoform alpha-like (Homo sapiens) (UniProt Q8N752); test: Selectivity interaction (KinomeScan (DiscoverX)) EUB0000092b CSNK1A1L; details: at 10 µM
T2 sequence (whole entry): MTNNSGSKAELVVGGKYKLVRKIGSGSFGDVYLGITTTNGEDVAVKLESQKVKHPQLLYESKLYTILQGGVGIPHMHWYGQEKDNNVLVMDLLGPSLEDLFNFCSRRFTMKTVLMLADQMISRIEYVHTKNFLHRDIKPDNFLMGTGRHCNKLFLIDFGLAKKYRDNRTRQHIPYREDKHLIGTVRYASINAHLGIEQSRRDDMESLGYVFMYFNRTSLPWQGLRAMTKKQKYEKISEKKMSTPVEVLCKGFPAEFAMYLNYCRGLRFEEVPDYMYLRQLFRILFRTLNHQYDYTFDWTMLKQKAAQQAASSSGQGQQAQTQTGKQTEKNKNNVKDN

[7] = target: Serine/threonine-protein kinase Nek7 (Homo sapiens) (UniProt Q8TDX7); test: Selectivity interaction (KinomeScan (DiscoverX)) EUB0000618a NEK7; details: at 10 µM
[8] = target: Bone morphogenetic protein receptor type-1B (Homo sapiens, UniProt O00238); test: Selectivity interaction (KinomeScan (DiscoverX)) EUB0000618a BMPR1B; details: at 10 µM
[9] = target: Serine/threonine-protein kinase PAK 3 (Homo sapiens) (UniProt O75914); test: Selectivity interaction (KinomeScan (DiscoverX)) EUB0000655a PAK3; details: at 10 µM
[10] = target: T3, Muscarinic acetylcholine receptor M2 (Homo sapiens) (UniProt P08172); test: Selectivity interaction (Panel of kinases, GPCRs, ion channels and transporters (enzymatic assay)) EUB0000223bCl CHRM2
T3 sequence (whole entry): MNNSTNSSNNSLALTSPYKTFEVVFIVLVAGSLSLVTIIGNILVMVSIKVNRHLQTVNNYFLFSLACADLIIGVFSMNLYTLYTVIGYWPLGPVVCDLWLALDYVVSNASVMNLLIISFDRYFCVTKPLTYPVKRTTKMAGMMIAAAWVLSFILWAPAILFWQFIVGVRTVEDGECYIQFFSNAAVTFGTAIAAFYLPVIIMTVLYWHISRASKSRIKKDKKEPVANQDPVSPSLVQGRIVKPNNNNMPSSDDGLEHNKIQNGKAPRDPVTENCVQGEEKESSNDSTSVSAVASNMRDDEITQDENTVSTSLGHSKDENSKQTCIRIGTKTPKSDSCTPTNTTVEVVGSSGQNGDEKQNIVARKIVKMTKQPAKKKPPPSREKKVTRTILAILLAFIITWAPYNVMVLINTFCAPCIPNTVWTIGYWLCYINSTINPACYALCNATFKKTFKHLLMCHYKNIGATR

Sequence of Focal adhesion kinase 1 (Q05397 2-1052 limits assumed): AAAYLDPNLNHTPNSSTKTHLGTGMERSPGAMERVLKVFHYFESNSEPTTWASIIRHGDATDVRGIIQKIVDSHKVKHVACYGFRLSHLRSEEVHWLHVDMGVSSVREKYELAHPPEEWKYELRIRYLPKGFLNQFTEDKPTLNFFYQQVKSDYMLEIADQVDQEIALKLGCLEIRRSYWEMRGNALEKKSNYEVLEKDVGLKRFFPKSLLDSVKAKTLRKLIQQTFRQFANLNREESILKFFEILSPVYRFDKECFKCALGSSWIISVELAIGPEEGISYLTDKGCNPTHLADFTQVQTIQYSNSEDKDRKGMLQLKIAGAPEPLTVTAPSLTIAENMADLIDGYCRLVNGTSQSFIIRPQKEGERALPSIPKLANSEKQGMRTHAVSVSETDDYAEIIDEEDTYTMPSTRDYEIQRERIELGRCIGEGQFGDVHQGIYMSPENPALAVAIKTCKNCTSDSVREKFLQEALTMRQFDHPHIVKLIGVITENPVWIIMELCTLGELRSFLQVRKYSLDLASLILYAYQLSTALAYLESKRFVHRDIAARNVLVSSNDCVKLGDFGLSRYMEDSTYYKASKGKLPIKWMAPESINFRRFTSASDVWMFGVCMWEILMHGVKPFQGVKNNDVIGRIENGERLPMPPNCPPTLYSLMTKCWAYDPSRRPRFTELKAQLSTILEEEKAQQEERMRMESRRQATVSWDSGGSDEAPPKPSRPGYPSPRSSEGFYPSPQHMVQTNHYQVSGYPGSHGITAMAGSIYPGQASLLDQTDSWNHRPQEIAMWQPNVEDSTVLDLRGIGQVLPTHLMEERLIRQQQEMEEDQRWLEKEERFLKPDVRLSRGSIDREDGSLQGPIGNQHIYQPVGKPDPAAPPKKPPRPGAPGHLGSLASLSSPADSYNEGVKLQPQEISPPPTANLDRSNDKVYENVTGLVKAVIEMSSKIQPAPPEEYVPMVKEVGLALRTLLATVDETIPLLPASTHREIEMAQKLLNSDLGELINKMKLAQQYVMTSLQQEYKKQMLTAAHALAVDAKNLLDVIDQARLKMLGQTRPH
Sequence of Cyclin-dependent kinase 14 (Homo sapiens) (O94921 whole entry, canonical isoform): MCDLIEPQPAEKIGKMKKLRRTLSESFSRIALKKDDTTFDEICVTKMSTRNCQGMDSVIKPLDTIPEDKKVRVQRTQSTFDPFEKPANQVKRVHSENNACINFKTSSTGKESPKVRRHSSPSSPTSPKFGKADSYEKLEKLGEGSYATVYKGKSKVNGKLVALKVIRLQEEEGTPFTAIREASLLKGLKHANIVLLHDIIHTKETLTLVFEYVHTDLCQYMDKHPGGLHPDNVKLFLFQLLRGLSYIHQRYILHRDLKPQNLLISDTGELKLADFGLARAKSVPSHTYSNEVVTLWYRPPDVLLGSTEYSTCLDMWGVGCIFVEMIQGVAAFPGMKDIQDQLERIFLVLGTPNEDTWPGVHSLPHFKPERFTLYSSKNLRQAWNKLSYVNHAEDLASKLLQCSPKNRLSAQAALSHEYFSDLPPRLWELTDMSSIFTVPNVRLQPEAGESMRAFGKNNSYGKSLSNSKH
Sequence of Bone morphogenetic protein receptor type-1B (O00238 whole entry): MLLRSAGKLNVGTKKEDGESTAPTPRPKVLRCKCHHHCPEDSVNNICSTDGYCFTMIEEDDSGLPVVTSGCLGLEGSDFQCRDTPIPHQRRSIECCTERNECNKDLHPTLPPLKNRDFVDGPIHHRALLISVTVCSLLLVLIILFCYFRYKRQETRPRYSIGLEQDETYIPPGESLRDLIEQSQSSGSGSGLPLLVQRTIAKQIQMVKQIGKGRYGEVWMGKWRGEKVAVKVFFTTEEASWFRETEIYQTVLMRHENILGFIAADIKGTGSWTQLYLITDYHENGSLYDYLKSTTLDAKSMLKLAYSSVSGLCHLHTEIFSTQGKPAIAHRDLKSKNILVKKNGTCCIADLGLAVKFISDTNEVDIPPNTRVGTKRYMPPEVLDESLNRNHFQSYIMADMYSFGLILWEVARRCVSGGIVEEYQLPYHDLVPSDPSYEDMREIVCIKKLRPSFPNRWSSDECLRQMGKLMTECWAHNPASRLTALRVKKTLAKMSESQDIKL
Sequence of Serine/threonine-protein kinase Nek7 (Homo sapiens) (Q8TDX7 whole entry, looked up): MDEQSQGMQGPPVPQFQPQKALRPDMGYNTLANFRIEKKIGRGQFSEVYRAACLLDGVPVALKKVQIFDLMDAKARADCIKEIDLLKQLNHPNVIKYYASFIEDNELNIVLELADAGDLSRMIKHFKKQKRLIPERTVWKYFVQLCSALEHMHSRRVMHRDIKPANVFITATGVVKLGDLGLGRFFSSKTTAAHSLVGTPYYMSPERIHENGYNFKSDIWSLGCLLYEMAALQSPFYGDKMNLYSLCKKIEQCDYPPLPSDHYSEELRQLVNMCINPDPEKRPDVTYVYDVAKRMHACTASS
Sequence of Histone-lysine N-methyltransferase, H3 lysine-79 specific (Q8TEK3 whole entry, looked up): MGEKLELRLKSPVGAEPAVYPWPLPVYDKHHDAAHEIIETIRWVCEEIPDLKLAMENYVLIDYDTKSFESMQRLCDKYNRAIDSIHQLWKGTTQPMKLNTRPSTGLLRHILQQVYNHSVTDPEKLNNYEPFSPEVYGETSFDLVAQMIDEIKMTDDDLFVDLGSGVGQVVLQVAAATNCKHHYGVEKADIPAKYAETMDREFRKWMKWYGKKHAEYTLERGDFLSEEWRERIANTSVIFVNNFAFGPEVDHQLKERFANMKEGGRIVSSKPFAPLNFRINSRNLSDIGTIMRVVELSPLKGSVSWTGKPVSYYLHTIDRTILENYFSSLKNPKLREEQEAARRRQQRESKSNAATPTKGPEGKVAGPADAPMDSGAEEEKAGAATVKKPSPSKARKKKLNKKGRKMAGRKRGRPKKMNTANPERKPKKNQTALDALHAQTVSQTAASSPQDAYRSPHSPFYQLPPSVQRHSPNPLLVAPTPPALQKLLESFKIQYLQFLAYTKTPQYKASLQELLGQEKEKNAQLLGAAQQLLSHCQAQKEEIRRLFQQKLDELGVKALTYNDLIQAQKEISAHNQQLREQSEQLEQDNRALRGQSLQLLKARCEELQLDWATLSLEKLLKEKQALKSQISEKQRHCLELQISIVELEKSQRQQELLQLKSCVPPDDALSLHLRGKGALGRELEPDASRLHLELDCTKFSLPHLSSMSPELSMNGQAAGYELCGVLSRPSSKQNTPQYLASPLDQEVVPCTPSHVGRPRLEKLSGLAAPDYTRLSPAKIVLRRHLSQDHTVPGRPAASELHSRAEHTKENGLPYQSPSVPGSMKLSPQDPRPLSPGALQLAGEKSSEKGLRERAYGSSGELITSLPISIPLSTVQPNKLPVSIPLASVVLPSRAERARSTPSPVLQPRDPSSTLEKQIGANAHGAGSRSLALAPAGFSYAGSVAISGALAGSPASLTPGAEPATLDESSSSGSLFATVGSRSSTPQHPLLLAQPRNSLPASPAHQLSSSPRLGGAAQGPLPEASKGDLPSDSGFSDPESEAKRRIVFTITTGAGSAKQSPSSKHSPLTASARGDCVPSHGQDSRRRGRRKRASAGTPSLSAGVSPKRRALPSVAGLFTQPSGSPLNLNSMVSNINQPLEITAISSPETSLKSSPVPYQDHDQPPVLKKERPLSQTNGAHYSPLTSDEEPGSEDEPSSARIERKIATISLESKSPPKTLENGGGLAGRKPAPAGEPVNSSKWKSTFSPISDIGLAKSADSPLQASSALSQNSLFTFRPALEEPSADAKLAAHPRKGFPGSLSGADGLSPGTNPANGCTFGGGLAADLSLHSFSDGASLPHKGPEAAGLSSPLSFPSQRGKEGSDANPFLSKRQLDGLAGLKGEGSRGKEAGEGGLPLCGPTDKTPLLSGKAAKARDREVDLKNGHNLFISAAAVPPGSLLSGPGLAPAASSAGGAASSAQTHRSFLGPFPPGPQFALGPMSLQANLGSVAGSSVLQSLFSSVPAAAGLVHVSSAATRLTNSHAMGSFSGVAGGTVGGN
Sequence of Serine/threonine-protein kinase PAK 3 (Homo sapiens) (O75914 whole entry, looked up): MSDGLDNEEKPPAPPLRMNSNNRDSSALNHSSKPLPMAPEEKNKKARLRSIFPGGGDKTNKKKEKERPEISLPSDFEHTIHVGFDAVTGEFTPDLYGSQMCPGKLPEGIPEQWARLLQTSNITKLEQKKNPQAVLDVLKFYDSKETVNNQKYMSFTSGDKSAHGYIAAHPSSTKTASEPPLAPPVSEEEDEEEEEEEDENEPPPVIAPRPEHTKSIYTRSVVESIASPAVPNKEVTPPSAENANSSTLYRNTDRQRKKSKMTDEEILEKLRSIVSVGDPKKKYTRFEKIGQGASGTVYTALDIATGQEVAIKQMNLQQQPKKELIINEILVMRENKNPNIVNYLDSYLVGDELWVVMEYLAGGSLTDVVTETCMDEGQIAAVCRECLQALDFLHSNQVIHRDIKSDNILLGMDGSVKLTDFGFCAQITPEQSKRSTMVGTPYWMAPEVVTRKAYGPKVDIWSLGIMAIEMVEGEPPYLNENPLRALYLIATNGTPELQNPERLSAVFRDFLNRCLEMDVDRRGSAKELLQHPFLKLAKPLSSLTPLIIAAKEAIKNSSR

For CNCCN1CCC(c2cc(CN(C)C(=O)c3cccc(Oc4ccccc4)c3)ccn2)CC1, the % activity [1] was > 90%.
In the case of Nc1cnc(N2CCc3cc(S(=O)(=O)Nc4c(F)cc(Cl)cc4F)cc(N4CCCC4=O)c32)nc1 [TP-020n], the % of control [2] is reported as 100%.
For Cc1cc(CN)cc(C)c1-c1ncn(C)c1-c1cncn1C, the dTM [3] was -2.18 K.
Work on CC[C@@H]1[C@H](F)C(=O)N[C@@H]1COc1nccc2cc(C(N)=O)c(OC)cc12 [ZIMLOVISERTIB] yielded a % of inhibition ([4]; at 0.01 µM) of 25.4%, a % of inhibition ([4]; at 0.04 µM) of -3.4% and a % of inhibition ([4]; at 0.2 µM) of -1.1%. For the same compound, the % of inhibition ([4]; at 1 µM) was -16.1% and the % of inhibition ([4]; at 5 µM) was 15.5%.
COCC(=O)NC/C=C/c1ccc2ncnc(Nc3ccc(Oc4ccc(C)nc4)c(C)c3)c2c1 [CP-724714] gave a % of control [5] of 100%.
Compound CCC(=O)N1CCN(c2ccc(-n3c(=O)ccc4cnc5ccc(-c6cnc7ccccc7c6)cc5c43)cc2C(F)(F)F)CC1 has a % of control [6] of 81%.
O[C@H]1CC[C@H](Nc2ncc3nc(Nc4c(F)cc(F)cc4F)n([C@H]4CCOC4)c3n2)CC1 showed a % of control [7] of 95% and a % of control [8] of 100%.
For CN(C)CCOc1ccc(-c2nc(-c3ccncc3)c(-c3ccc4c(c3)CC/C4=N\O)[nH]2)cc1, the % of control [9] was 72%.
COc1cc(C(=O)N2CC[C@@H](O)[C@@H](N)C2)cc2nc(-c3cc4ccccc4n3CC3CC3)n(C)c12 was tested, and the pXC50 [10] was < 4.8 M.
